The source of these data is publication PMC5504036, “A tricyclic antidepressant, amoxapine, reduces amyloid-β generation through multiple serotonin receptor 6-mediated targets” (Scientific Reports, 2017).

The test concerns the target T1, serotonin receptor 6 (HTR6) (Homo sapiens, UniProt P50406).
T1 construct: human HTR6 expressed by lentivirus in SK-N-SH cells
As to the kind of experiment: GloSensor cAMP assay (agonist) in SK-N-SH cells infected with HTR6 lentivirus. Type of test: cell-based.

T1 sequence (P50406 whole entry): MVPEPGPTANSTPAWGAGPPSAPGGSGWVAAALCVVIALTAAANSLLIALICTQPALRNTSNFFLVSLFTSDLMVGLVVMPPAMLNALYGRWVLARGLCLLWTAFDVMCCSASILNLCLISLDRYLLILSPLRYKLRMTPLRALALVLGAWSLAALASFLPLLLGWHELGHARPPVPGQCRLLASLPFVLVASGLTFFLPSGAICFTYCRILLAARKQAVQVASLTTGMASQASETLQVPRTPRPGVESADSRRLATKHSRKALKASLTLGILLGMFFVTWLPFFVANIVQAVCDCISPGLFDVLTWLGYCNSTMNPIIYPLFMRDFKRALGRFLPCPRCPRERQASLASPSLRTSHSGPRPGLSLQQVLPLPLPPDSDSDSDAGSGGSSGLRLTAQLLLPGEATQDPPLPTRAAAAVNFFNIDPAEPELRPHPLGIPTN

A word on the EC50: it is the midpoint of the concentration-response curve. A high value points to lower potency in that assay. The compound `Cc1[nH]c2ccc(Cl)cc2c1CCN(C)C` [ST1936] yielded an EC50 of 1.7 nM. In other words, the single-digit nanomolar range.
